Relative viability data for seven cell lines are collected here from the supplement of paper PMC10307832.

Assay in all cases: relative viability (nuclei count vs DMSO), 5 days (fraction); higher = more cells survive
Compound in the experiment “BX 795 + Trametinib”: O=C(NCCCNc1nc(Nc2cccc(NC(=O)N3CCCC3)c2)ncc1I)c1cccs1 [BX 795] + CC(=O)Nc1cccc(-n2c(=O)n(C3CC3)c(=O)c3c(Nc4ccc(I)cc4F)n(C)c(=O)c(C)c32)c1 [Trametinib] (partner 0.02 µM)
The procedure, abridged: (§1)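 One day after seeding in 1536-well plates, lung cancer cell lines were dosed by pin tool. Dosing was either single-drug or a fixed anchor-drug dose plus five library-drug doses (not always all listed) in √10 steps. After 5 days, nuclei were stained in one fix-and-stain step and counted on 4× images, and relative viability is the nuclei count of treated wells over that of vehicle wells, given as the median of duplicate plates.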

Compound in the experiment “BX 795 + Dasatinib”: O=C(NCCCNc1nc(Nc2cccc(NC(=O)N3CCCC3)c2)ncc1I)c1cccs1 [BX 795] + Cc1nc(Nc2ncc(C(=O)Nc3c(C)cccc3Cl)s2)cc(N2CCN(CCO)CC2)n1 [Dasatinib] (partner 0.075 µM)
An outline of the steps: as §1

Compound in the experiment “BX 795 + OSI-027”: O=C(NCCCNc1nc(Nc2cccc(NC(=O)N3CCCC3)c2)ncc1I)c1cccs1 [BX 795] + COc1cccc2cc(-c3nc([C@H]4CC[C@H](C(=O)O)CC4)n4ncnc(N)c34)[nH]c12 [OSI-027] (partner 0.5 µM)
The procedure, abridged: as §1

Compound in the experiment “BX 795 + Phenformin”: O=C(NCCCNc1nc(Nc2cccc(NC(=O)N3CCCC3)c2)ncc1I)c1cccs1 [BX 795] + N=C(N)NC(=N)NCCc1ccccc1 [Phenformin] (partner 250 µM)
An outline of the steps:
as §1

Compound in the experiment “BX 795 + Luminespib”: O=C(NCCCNc1nc(Nc2cccc(NC(=O)N3CCCC3)c2)ncc1I)c1cccs1 [BX 795] + CCNC(=O)c1noc(-c2cc(C(C)C)c(O)cc2O)c1-c1ccc(CN2CCOCC2)cc1 [Luminespib] (partner 0.01 µM)
An outline of the steps: as §1

Take NCI-H520: the relative viability with BX 795 + Trametinib (first compound 0.04 µM) came out at 0.568; in the experiment with BX 795 + Trametinib (first compound 0.1265 µM), 0.723; in the experiment with BX 795 + Trametinib (first compound 0.4 µM), 0.593; in the experiment with BX 795 + Trametinib (first compound 1.265 µM) it was 0.362; in the experiment with BX 795 + Dasatinib (first compound 0.04 µM), 0.199; in the experiment with BX 795 + Dasatinib (first compound 0.1265 µM), 0.194. In addition, the relative viability came to 0.376 with BX 795 + Dasatinib (first compound 0.4 µM); 0.162 in the experiment with BX 795 + Dasatinib (first compound 1.265 µM); 0.226 with BX 795 + OSI-027 (first compound 0.04 µM); 0.255 with BX 795 + OSI-027 (first compound 0.1265 µM); 0.19 in the experiment with BX 795 + OSI-027 (first compound 0.4 µM); 0.201 with BX 795 + OSI-027 (first compound 1.265 µM). Further, the relative viability in the experiment with BX 795 + Phenformin (first compound 0.04 µM) was found to be 0.699; in the experiment with BX 795 + Phenformin (first compound 0.1265 µM), 0.658; with BX 795 + Phenformin (first compound 0.4 µM), 0.4; with BX 795 + Phenformin (first compound 1.265 µM), 0.233; with BX 795 + Luminespib (first compound 0.04 µM), 0.211; with BX 795 + Luminespib (first compound 0.1265 µM), 0.2. In addition, the relative viability with BX 795 + Luminespib (first compound 0.4 µM) came out at 0.225; in the experiment with BX 795 + Luminespib (first compound 1.265 µM) it was 0.277.

Regarding NCI-H522, the relative viability with BX 795 + Trametinib (first compound 0.04 µM) came out at 0.84; in the experiment with BX 795 + Trametinib (first compound 0.1265 µM) it was 0.781; in the experiment with BX 795 + Trametinib (first compound 0.4 µM) it was 0.803; with BX 795 + Trametinib (first compound 1.265 µM), 0.616; in the experiment with BX 795 + Dasatinib (first compound 0.04 µM), 0.972; in the experiment with BX 795 + Dasatinib (first compound 0.1265 µM) it was 0.769. Also, the relative viability was found to be 0.764 in the experiment with BX 795 + Dasatinib (first compound 0.4 µM); 0.849 with BX 795 + Dasatinib (first compound 1.265 µM); 0.801 in the experiment with BX 795 + OSI-027 (first compound 0.04 µM); 0.71 with BX 795 + OSI-027 (first compound 0.1265 µM); 0.769 with BX 795 + OSI-027 (first compound 0.4 µM); 0.685 in the experiment with BX 795 + OSI-027 (first compound 1.265 µM). Besides, the relative viability with BX 795 + Phenformin (first compound 0.04 µM) stood at 0.645; with BX 795 + Phenformin (first compound 0.1265 µM), 0.643; in the experiment with BX 795 + Phenformin (first compound 0.4 µM) it was 0.681; with BX 795 + Phenformin (first compound 1.265 µM) it was 0.668; in the experiment with BX 795 + Luminespib (first compound 0.04 µM) it was 1.41; in the experiment with BX 795 + Luminespib (first compound 0.1265 µM) it was 1.23. For the same cell line, the relative viability with BX 795 + Luminespib (first compound 0.4 µM) is 1.02; in the experiment with BX 795 + Luminespib (first compound 1.265 µM), 1.01.

On to NCI-H596, for which the relative viability with BX 795 + Trametinib (first compound 0.04 µM) came to 0.807; in the experiment with BX 795 + Trametinib (first compound 0.1265 µM), 0.757; with BX 795 + Trametinib (first compound 0.4 µM) it was 0.932; in the experiment with BX 795 + Trametinib (first compound 1.265 µM) it was 0.776; with BX 795 + Dasatinib (first compound 0.04 µM), 0.626; in the experiment with BX 795 + Dasatinib (first compound 0.1265 µM), 0.587. Moreover, the relative viability in the experiment with BX 795 + Dasatinib (first compound 0.4 µM) stood at 0.561; with BX 795 + Dasatinib (first compound 1.265 µM), 0.591; in the experiment with BX 795 + OSI-027 (first compound 0.04 µM), 0.866; with BX 795 + OSI-027 (first compound 0.1265 µM) it was 0.705; with BX 795 + OSI-027 (first compound 0.4 µM), 0.664; with BX 795 + OSI-027 (first compound 1.265 µM), 0.684. Further, the relative viability with BX 795 + Phenformin (first compound 0.04 µM) is 0.681; with BX 795 + Phenformin (first compound 0.1265 µM), 0.802; with BX 795 + Phenformin (first compound 0.4 µM), 0.805; with BX 795 + Phenformin (first compound 1.265 µM), 0.887; in the experiment with BX 795 + Luminespib (first compound 0.04 µM), 1.21; with BX 795 + Luminespib (first compound 0.1265 µM), 1. The relative viability was found to be 1.14 in the experiment with BX 795 + Luminespib (first compound 0.4 µM) and 0.764 with BX 795 + Luminespib (first compound 1.265 µM).

In the case of NCI-H647, the relative viability in the experiment with BX 795 + Trametinib (first compound 0.04 µM) is 0.447; in the experiment with BX 795 + Trametinib (first compound 0.1265 µM), 0.504; with BX 795 + Trametinib (first compound 0.4 µM), 0.448; with BX 795 + Trametinib (first compound 1.265 µM) it was 0.344; with BX 795 + Dasatinib (first compound 0.04 µM), 0.19; with BX 795 + Dasatinib (first compound 0.1265 µM) it was 0.196. The relative viability with BX 795 + Dasatinib (first compound 0.4 µM) is 0.151; in the experiment with BX 795 + Dasatinib (first compound 1.265 µM), 0.0897; with BX 795 + OSI-027 (first compound 0.04 µM) it was 0.723; with BX 795 + OSI-027 (first compound 0.1265 µM), 0.826; with BX 795 + OSI-027 (first compound 0.4 µM) it was 0.581; with BX 795 + OSI-027 (first compound 1.265 µM) it was 0.584. Also, the relative viability with BX 795 + Phenformin (first compound 0.04 µM) came to 0.456; in the experiment with BX 795 + Phenformin (first compound 0.1265 µM), 0.541; with BX 795 + Phenformin (first compound 0.4 µM) it was 0.572; with BX 795 + Phenformin (first compound 1.265 µM) it was 0.266; in the experiment with BX 795 + Luminespib (first compound 0.04 µM) it was 0.149; with BX 795 + Luminespib (first compound 0.1265 µM), 0.134. Besides, the relative viability in the experiment with BX 795 + Luminespib (first compound 0.4 µM) stood at 0.104; in the experiment with BX 795 + Luminespib (first compound 1.265 µM) it was 0.105.

On to NCI-H650, for which the relative viability is 1.05 with BX 795 + Trametinib (first compound 0.04 µM); 0.999 with BX 795 + Trametinib (first compound 0.1265 µM); 0.986 with BX 795 + Trametinib (first compound 0.4 µM); 0.928 with BX 795 + Trametinib (first compound 1.265 µM); 0.463 with BX 795 + Dasatinib (first compound 0.04 µM); 0.41 with BX 795 + Dasatinib (first compound 0.1265 µM). For the same cell line, the relative viability in the experiment with BX 795 + Dasatinib (first compound 0.4 µM) was 0.42; in the experiment with BX 795 + Dasatinib (first compound 1.265 µM), 0.337; with BX 795 + OSI-027 (first compound 0.04 µM) it was 0.527; with BX 795 + OSI-027 (first compound 0.1265 µM) it was 0.556; with BX 795 + OSI-027 (first compound 0.4 µM), 0.559; with BX 795 + OSI-027 (first compound 1.265 µM), 0.391. Moreover, the relative viability was 0.467 with BX 795 + Phenformin (first compound 0.04 µM); 0.425 with BX 795 + Phenformin (first compound 0.1265 µM); 0.5 with BX 795 + Phenformin (first compound 0.4 µM); 0.408 in the experiment with BX 795 + Phenformin (first compound 1.265 µM); 0.765 with BX 795 + Luminespib (first compound 0.04 µM); 0.759 with BX 795 + Luminespib (first compound 0.1265 µM). Besides, the figures for the relative viability with BX 795 + Luminespib (first compound 0.4 µM) and with BX 795 + Luminespib (first compound 1.265 µM) were 0.65 and 0.745, respectively.

On to NCI-H661, for which the relative viability with BX 795 + Trametinib (first compound 0.04 µM) stood at 0.62; with BX 795 + Trametinib (first compound 0.1265 µM) it was 0.583; with BX 795 + Trametinib (first compound 0.4 µM), 0.55; in the experiment with BX 795 + Trametinib (first compound 1.265 µM), 0.564; with BX 795 + Dasatinib (first compound 0.04 µM), 0.9; with BX 795 + Dasatinib (first compound 0.1265 µM), 0.938. Further, the relative viability with BX 795 + Dasatinib (first compound 0.4 µM) is 0.501; with BX 795 + Dasatinib (first compound 1.265 µM), 0.515; with BX 795 + OSI-027 (first compound 0.04 µM), 0.514; in the experiment with BX 795 + OSI-027 (first compound 0.1265 µM) it was 0.688; in the experiment with BX 795 + OSI-027 (first compound 0.4 µM), 0.554; with BX 795 + OSI-027 (first compound 1.265 µM), 0.511. The relative viability was 0.261 with BX 795 + Phenformin (first compound 0.04 µM); 0.245 in the experiment with BX 795 + Phenformin (first compound 0.1265 µM); 0.274 with BX 795 + Phenformin (first compound 0.4 µM); 0.238 in the experiment with BX 795 + Phenformin (first compound 1.265 µM); 1 in the experiment with BX 795 + Luminespib (first compound 0.04 µM); 0.951 with BX 795 + Luminespib (first compound 0.1265 µM). Moreover, the values for the relative viability in the experiment with BX 795 + Luminespib (first compound 0.4 µM) and with BX 795 + Luminespib (first compound 1.265 µM) were 0.828 and 0.71, respectively.

NCI-H727: the relative viability was 0.377 in the experiment with BX 795 + Trametinib (first compound 0.04 µM); 0.38 with BX 795 + Trametinib (first compound 0.1265 µM); 0.36 with BX 795 + Trametinib (first compound 0.4 µM); 0.4 with BX 795 + Trametinib (first compound 1.265 µM); 0.376 with BX 795 + Dasatinib (first compound 0.04 µM); 0.318 with BX 795 + Dasatinib (first compound 0.1265 µM). Moreover, the relative viability with BX 795 + Dasatinib (first compound 0.4 µM) is 0.386; with BX 795 + Dasatinib (first compound 1.265 µM), 0.58; with BX 795 + OSI-027 (first compound 0.04 µM), 0.761; with BX 795 + OSI-027 (first compound 0.1265 µM) it was 0.635; with BX 795 + OSI-027 (first compound 0.4 µM), 0.537; in the experiment with BX 795 + OSI-027 (first compound 1.265 µM), 0.557. Moreover, the relative viability with BX 795 + Phenformin (first compound 0.04 µM) was 0.571; with BX 795 + Phenformin (first compound 0.1265 µM), 0.566; with BX 795 + Phenformin (first compound 0.4 µM), 0.444; in the experiment with BX 795 + Phenformin (first compound 1.265 µM), 0.617; with BX 795 + Luminespib (first compound 0.04 µM), 0.345; with BX 795 + Luminespib (first compound 0.1265 µM) it was 0.257. Moreover, the relative viability with BX 795 + Luminespib (first compound 0.4 µM) was 0.29; in the experiment with BX 795 + Luminespib (first compound 1.265 µM), 0.389.
